Source: patent publication US20050106729A1, “Gene transfer methods and compositions” (priority 2002, published 2005)

System: MMP-7 deficient corneal epithelial cells co-infected with CFB-EGSH-MMP-7 and FB-ERV retroviruses (ecdysone receptor)
Experiment: Ponasterone A induction of MMP-7 expression in co-infected corneal epithelial cells (immunohistochemistry)
Format: cell-based, mouse
Settings: 10 μM ponasterone A; two days after induction; induced vs non-induced infected cells
From the text: A cDNA encoding mouse pro matrix metalloproteinase-7 (MMP-7) was obtained from the I.M.A.G.E. clone consortium. Using a PCR-based cloning strategy, the cDNA was inserted into the multiple cloning site of pCFP-EGSH (a plasmid vector including retroviral packaging signals and a multiple cloning site downstream of an ecdysone hormone receptor responsive promoter) to make plasmid pCFB-EGSH-MMP-7. A second plasmid used in these experiments was pFB-ERV, a plasmid vector with retroviral packaging signals, and expressing the constituents of functional ecdysone hormone receptors capable of binding ponasterone A and activating the ecdysone responsive promoter in pCFP-EGSH.
Replication deficient retroviral supematants from pCGB-EGSH-MMP-7 and […] were produced separately. The plasmid for pCFB-EGSH-MMP-7 or pFB-EGSH was co-transfected using a liposomal method into HEK293 cells along with the plasmids pEnv (expressing a retroviral ecotropic envelope protein) and pGag-Pol (expressing the gag and pol genes required for assembly of infectious retroviral particles). […]
MMP-7 deficient corneal epithelial cells co-infected with CFB-EGSH-MMP-7 and FB-ERV replication deficient retroviruses were induced with 10 μM ponasterone A. an ecdysone analog and a ligand for the ecdysone receptor. […] Immunolocalization was determined using epifluorescence microscopy.

SMILES: CC(C)CC[C@@H](O)[C@](C)(O)[C@H]1CC[C@@]2(O)C3=CC(=O)[C@@H]4C[C@@H](O)[C@@H](O)C[C@]4(C)[C@H]3CC[C@]12C [ponasterone A]
- Expression of MMP-7 (immunolocalization, epifluorescence microscopy): Expression of MMP-7 was seen only in infected epithelial cells induced with ponasterone A
